# Source: US7109296B2, “Human 5-HT3-C protein” (Ortho-McNeil Pharmaceutical, Inc., priority 1999, dated 2006)
# How the values were obtained:
# Type in all cases: cell-based
# 5-HT3-A receptors = target: T1, 5-HT3-A receptors (Homo sapiens, UniProt P46098); experiment: FLIPR DiBAC control, cells stably expressing 5-HT3-A receptors; settings: control for the DIBAC; increase in fluorescence
# T1 sequence (P46098 24-478): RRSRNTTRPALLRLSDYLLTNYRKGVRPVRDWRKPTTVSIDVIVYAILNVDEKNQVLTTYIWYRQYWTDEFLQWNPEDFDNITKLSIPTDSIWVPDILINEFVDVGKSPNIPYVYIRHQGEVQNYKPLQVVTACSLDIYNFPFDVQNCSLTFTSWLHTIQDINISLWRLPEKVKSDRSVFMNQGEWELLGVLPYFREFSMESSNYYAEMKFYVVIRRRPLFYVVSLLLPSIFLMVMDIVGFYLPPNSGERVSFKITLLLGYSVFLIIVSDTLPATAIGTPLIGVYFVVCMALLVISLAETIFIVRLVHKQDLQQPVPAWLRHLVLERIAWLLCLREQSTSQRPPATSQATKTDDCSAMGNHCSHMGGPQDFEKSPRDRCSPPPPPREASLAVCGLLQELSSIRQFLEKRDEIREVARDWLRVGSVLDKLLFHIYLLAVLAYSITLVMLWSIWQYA
# [1] = target: T2, 5-HT3-C together with nicotinic ACh receptor a6 subunit (Homo sapiens, UniProt Q15825+Q8WXA8); experiment: Two-electrode voltage clamp, oocytes injected with 5-HT3-C together with nicotinic ACh receptor α6 subunit; settings: 10 μM; eight days after injection; 5-HT3-C 0.67 ng, a6 1 ng/oocyte
# T2 construct: Characterization of the Function of Protein Encoded by p5HT3CR in Xenopus oocvtes; expressed in transfected cells; host or cells: Xenopus laevis oocytes injected with cRNA
# T2 sequence (Q15825 26-494, one chain of several): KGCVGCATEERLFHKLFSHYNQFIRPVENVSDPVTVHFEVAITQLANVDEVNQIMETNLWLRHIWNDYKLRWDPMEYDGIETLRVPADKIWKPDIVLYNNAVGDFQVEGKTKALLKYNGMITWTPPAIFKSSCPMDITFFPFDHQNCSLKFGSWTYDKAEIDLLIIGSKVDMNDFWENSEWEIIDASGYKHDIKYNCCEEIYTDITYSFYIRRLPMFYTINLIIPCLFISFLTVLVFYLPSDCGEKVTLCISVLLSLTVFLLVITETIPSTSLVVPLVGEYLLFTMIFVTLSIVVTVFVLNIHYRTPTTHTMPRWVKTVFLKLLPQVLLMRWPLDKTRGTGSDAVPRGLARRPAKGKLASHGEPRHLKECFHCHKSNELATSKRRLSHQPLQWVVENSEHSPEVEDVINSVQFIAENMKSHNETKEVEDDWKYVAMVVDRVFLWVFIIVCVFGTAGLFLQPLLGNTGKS
# Protocol: Characterization of the Function of Protein Encoded by p5HT3CR in Xenopus oocvtes Xenopus laevis oocytes were prepared and injected using standard methods previously described and known in the art (Fraser et al., 1993). Ovarian lobes from adult female Xenopus laevis (Nasco, Fort Atkinson, Wis.) were teased apart, rinsed several times in nominally Ca-free saline containing (in mM): NaCl 82.5, KCl 2.5, MgCl2 1, HEPES 5, adjusted to pH 7.0 with NaOH(OR-2), and gently shaken in OR-2 containing 0.2% collagenase Type 1 (ICN Biomedicals, Aurora, Ohio) for 2–5 hours. When approximately 50% of the follicular layers were removed, Stage V and VI oocytes were selected and rinsed in media consisting of 75% OR-2 and 25% ND-96. The ND-96 contained (in mM): NaCl 100, KCl 2, MgCl2 1, CaCl2 1.8, HEPES 5, Na pyruvate 2.5, gentamicin (50 ug/ml), adjusted to pH 7.0 with NaOH. […] For in vitro transcription, pGEM HE (Liman et al., 1992) containing human 5-HT3-A (Genbank D49394) or 5-HT3-C cDNA was linearized with NheI and transcribed with T7 RNA polymerase (Stratagene) in the presence of the cap analog m7G(5′)ppp(5′)G. The synthesized cRNA was purified with a Sephadex G-50 spin column. Oocytes were injected with 50 nl of the human serotonin 5-HT3-A receptor with or without the 5-HT3-C RNA (0.02 and 0.002–0.2 ng each) or other channel or receptor subunit. Control oocytes were injected with 50 nl of water. Oocytes were incubated for 2–14 days in ND-96 before analysis for expression of the human 5-HT3-C. Incubations and collagenase digestion were carried out at room temperature. Injected oocytes were maintained in 48 well cell culture clusters (Costar, Cambridge, Mass.) at 18° C. Whole cell agonist-induced currents were measured 1–14 days after injection with a conventional two-electrode voltage clamp (GeneClamp500, Axon Instruments, Foster City, Calif.) using standard methods previously described and known in the art (Dascal, 1987). The microelectrodes were filled with 3 M KCl, which had resistances of 1 and 2 MΩ. […]
# [2] = target: T3, human 5-HT3-A(short) receptor (Homo sapiens, UniProt P46098); experiment: Two-electrode voltage clamp, oocytes expressing 5-HT3-A(short) homomeric receptors
# T3 sequence (P46098 24-478): T1 sequence (P46098 24-478)
# [3] = target: T4, long form of human 5-HT3-A together with 5-HT3-C (Homo sapiens, UniProt P46098+Q8WXA8); experiment: Two-electrode voltage clamp, oocytes co-injected with long form of human 5-HT3-A and 5-HT3-C; settings: 10 μM; n=2
# T4 construct: Characterization of the Function of Protein Encoded by p5HT3CR in Xenopus oocvtes; expressed in transfected cells; host or cells: Xenopus laevis oocytes co-injected with cRNAs
# T4 sequence (P46098 24-510 isoform P46098-2): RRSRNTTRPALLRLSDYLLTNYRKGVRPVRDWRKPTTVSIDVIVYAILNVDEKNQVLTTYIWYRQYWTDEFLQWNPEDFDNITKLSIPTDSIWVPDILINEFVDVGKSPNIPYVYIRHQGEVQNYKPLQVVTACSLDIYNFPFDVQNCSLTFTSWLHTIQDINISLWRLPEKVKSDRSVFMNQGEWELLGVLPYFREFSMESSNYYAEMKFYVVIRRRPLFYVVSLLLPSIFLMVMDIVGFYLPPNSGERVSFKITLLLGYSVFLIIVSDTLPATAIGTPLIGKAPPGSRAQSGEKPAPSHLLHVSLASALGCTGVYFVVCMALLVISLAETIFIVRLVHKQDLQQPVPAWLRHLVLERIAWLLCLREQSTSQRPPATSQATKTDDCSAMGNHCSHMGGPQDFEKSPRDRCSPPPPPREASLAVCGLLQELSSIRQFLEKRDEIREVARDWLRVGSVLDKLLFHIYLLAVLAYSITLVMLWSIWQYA
# T4 sequence (Q8WXA8 28-447): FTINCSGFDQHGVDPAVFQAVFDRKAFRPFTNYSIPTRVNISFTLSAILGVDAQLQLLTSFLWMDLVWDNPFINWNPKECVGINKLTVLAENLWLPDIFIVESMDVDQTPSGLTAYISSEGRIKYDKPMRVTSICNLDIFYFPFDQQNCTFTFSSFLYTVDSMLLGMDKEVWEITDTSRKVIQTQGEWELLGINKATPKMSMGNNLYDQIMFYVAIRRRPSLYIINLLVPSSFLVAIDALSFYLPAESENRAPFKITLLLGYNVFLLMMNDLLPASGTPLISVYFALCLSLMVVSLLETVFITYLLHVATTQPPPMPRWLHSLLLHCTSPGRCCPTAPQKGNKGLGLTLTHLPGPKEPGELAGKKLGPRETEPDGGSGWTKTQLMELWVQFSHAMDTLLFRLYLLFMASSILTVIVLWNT
# Protocol: Characterization of the Function of Protein Encoded by p5HT3CR in Xenopus oocvtes Xenopus laevis oocytes were prepared and injected using standard methods previously described and known in the art (Fraser et al., 1993). Ovarian lobes from adult female Xenopus laevis (Nasco, Fort Atkinson, Wis.) were teased apart, rinsed several times in nominally Ca-free saline containing (in mM): NaCl 82.5, KCl 2.5, MgCl2 1, HEPES 5, adjusted to pH 7.0 with NaOH(OR-2), and gently shaken in OR-2 containing 0.2% collagenase Type 1 (ICN Biomedicals, Aurora, Ohio) for 2–5 hours. When approximately 50% of the follicular layers were removed, Stage V and VI oocytes were selected and rinsed in media consisting of 75% OR-2 and 25% ND-96. The ND-96 contained (in mM): NaCl 100, KCl 2, MgCl2 1, CaCl2 1.8, HEPES 5, Na pyruvate 2.5, gentamicin (50 ug/ml), adjusted to pH 7.0 with NaOH. […] Whole cell agonist-induced currents were measured 1–14 days after injection with a conventional two-electrode voltage clamp (GeneClamp500, Axon Instruments, Foster City, Calif.) using standard methods previously described and known in the art (Dascal, 1987). […]
structure (smiles),measurement,setting,value
"NCCc1c[nH]c2ccc(O)cc12 [5-HT, 5-hydroxytryptamine]",DiBAC membrane potential response,5-HT3-A receptors,fast transient depolarization
same,responsiveness of oocytes to agonist,[1],not responsive
same,peak currents to 5-HT,"[2]; 5-HT3-A(short)-expressing oocytes, comparison for 2:1 ratio, n=19",−1.65+/−0.42 nA
same,Responses to 5-HT,"[2]; 10 LM 5-HT, 5-HT3-A(short)-injected oocytes (0.33 ng), n=6",−3.89+/−0.76 nA
same,sensitivity of oocytes to agonist,[3],insensitive
